The values below come from ChEMBL document CHEMBL3714762, “Agents and methods for treating ischemic and other diseases” (2012).

Activity calls are given as the source filed them. The calls are words filed in the database; no cut-off is given here.

A short description of data set [1]: Antiproliferative activity against human WERI cells assessed as inhibition of cell proliferation by measuring normalized ratio of propidium iodide uptake at 5 uM by propidium iodide uptake based fluoroskan microplate reader analysis. The class given is functional.
Data set [2] can be described thus: Antiproliferative activity against human WERI cells assessed as inhibition of cell proliferation at 5 uM by propidium iodide uptake based fluoroskan microplate reader analysis. The class given is functional.
Data set [3] can be described thus: Antiproliferative activity against human WERI cells assessed as inhibition of cell proliferation by measuring normalized ratio of propidium iodide uptake at 10 uM by propidium iodide uptake based fluoroskan microplate reader analysis. The class given is functional.
Data set [4] in a line: Antiproliferative activity against human WERI cells assessed as inhibition of cell proliferation at 10 uM by propidium iodide uptake based fluoroskan microplate reader analysis. The class given is functional.
Data set [5] can be described thus: Selectivity index, ratio of antiproliferative activity against mouse NIH/3T3 cells to antiproliferative activity against human DMS53 cells. Further details: species or system DMS-53.
Data set [6] can be described thus: Selectivity index, ratio of antiproliferative activity against human MCF10A cells to antiproliferative activity against human DMS53 cells. Further details: species or system MCF-10A.
The nature of data set [7]: Selectivity index, ratio of antiproliferative activity against mouse NIH/3T3 cells to antiproliferative activity against human MCF7 cells.
Data set [8] is described as follows: Antiproliferative activity against human WERI cells assessed as inhibition of cell proliferation by propidium iodide uptake based fluoroskan microplate reader analysis. The class given is functional.
Data set [9] addresses Transient receptor potential cation channel subfamily M member 7 (Mus musculus, UniProt Q923J1). Kind of data set: Inhibition of N-terminal Flag-tagged mouse TRPM7 expressed in HEK293T cells assessed as reduction in whole cell currents by whole-cell patch clamp assay. The class given is cell-based, HEK-293T.
The test system of data set [10] is MCF7. Put plainly: Antiproliferative activity against human MCF7 cells assessed as inhibition of cell proliferation at 10 uM incubated for 72 hrs by Cell-titer-Glo cell viability assay. The class given is functional. Particulars: MCF7, 72 h.
Data set [11] is described as follows: Antiproliferative activity against mouse B16F10 cells assessed as inhibition of cell proliferation at 10 uM incubated for 72 hrs by Cell-titer-Glo cell viability assay. The class given is functional. Particulars: B16-F10, 72 h.
A short description of data set [12]: Selectivity index, ratio of antiproliferative activity against human WI38 cells to antiproliferative activity against mouse B16F10 cells. Further details: species or system B16-F10.
Data set [13] in a line: Antiproliferative activity against human DMS53 cells assessed as inhibition of cell proliferation at 10 uM incubated for 72 hrs by Cell-titer-Glo cell viability assay. The class given is functional. Particulars: DMS-53, 72 h.
Data set [14] concerns HeLa. Put plainly: Antiproliferative activity against human HeLa cells assessed as inhibition of cell proliferation at 10 uM incubated for 72 hrs by Cell-titer-Glo cell viability assay. The class given is functional.
A short description of data set [15]: Selectivity index, ratio of antiproliferative activity against mouse NIH/3T3 cells to antiproliferative activity against mouse B16F10 cells. Further details: species or system B16-F10.
The nature of data set [16]: Selectivity index, ratio of antiproliferative activity against mouse NIH/3T3 cells to antiproliferative activity against human HeLa cells.
Data set [17] in a line: Selectivity index, ratio of antiproliferative activity against human WI38 cells to antiproliferative activity against human Y79 cells. Also noted: species or system WI-38.
Data set [18] in a line: Selectivity index, ratio of antiproliferative activity against human WI38 cells to antiproliferative activity against human HeLa cells.
Data set [19] in a line: Selectivity index, ratio of antiproliferative activity against human MCF10A cells to antiproliferative activity against human MCF7 cells. Also noted: species or system MCF-10A.
The nature of data set [20]: Selectivity index, ratio of antiproliferative activity against human WI38 cells to antiproliferative activity against human MCF7 cells.
A short description of data set [21]: Selectivity index, ratio of antiproliferative activity against human MCF10A cells to antiproliferative activity against human Y79 cells. Also noted: species or system MCF-10A.
A short description of data set [22]: Selectivity index, ratio of antiproliferative activity against human MCF10A cells to antiproliferative activity against human HeLa cells.
Data set [23] can be described thus: Selectivity index, ratio of antiproliferative activity against mouse NIH/3T3 cells to antiproliferative activity against human Y79 cells.
Data set [24] has as its system Y79. Kind of data set: Antiproliferative activity against human Y79 cells assessed as inhibition of cell proliferation at 10 uM incubated for 72 hrs by Cell-titer-Glo cell viability assay. The class given is functional. Particulars: Y79, 72 h.
A short description of data set [25]: Antiproliferative activity against human MCF10A cells assessed as inhibition of cell proliferation at 10 uM incubated for 72 hrs by Cell-titer-Glo cell viability assay. The class given is cell-based, MCF-10A.
Data set [26] in a line: Antiproliferative activity against human WI38 cells assessed as inhibition of cell proliferation at 10 uM incubated for 72 hrs by Cell-titer-Glo cell viability assay. The class given is cell-based, WI-38.
A short description of data set [27]: Selectivity index, ratio of antiproliferative activity against human MCF10A cells to antiproliferative activity against mouse B16F10 cells. Also noted: species or system MCF-10A.
A short description of data set [28]: Selectivity index, ratio of antiproliferative activity against human WI38 cells to antiproliferative activity against human DMS53 cells. Also noted: species or system DMS-53.
A short description of data set [29]: Antiproliferative activity against mouse NIH/3T3 cells assessed as inhibition of cell proliferation at 10 uM incubated for 72 hrs by Cell-titer-Glo cell viability assay. The class given is cell-based, NIH3T3.
The species named for data set [30] is Rattus norvegicus. Put plainly: Neuroprotection in Sprague-Dawley rat model of fluid percussion injury assessed as distance traveled by rotarod performance test relative to untreated control. The class given is functional, organism-based.
For data set [31], the species on record is Rattus norvegicus. Kind of data set: Neuroprotection in Sprague-Dawley rat model of fluid percussion injury assessed as increase in balance by measuring mean latency measured on first day post injury by rotarod performance test relative to untreated control. The class given is functional. Background: In the rotarod test animals must keep their balance on a rotating rod.

For data set [32], the species on record is Rattus norvegicus. Put plainly: Neuroprotection in Sprague-Dawley rat model of fluid percussion injury assessed as activity parameters by rotarod performance test relative to untreated control. The class given is functional, organism-based.
In data set [33] the test system is Rattus norvegicus. Kind of data set: Neuroprotection in Sprague-Dawley rat model of fluid percussion injury assessed as improvement in learning and memory tasks by measuring latency to reach platform dosed 1 hr after lateral fluid percussion injury by Morris water maze test. The class given is functional, organism-based.
The subject of data set [34] is Rattus norvegicus. Kind of data set: Neuroprotection in Sprague-Dawley rat model of fluid percussion injury assessed as reduction in neuronal damage dosed 1 hr after injury by TTC staining based oscilloscopy. The class given is functional, organism-based.
In data set [35] the test system is Rattus norvegicus. Put plainly: Neuroprotection in Sprague-Dawley rat model of fluid percussion injury assessed as reduction in neuronal brain damage dosed before injury at 2 to 10 uM by TTC staining based oscilloscopy. The class given is functional, organism-based.
Data set [36] concerns Cerebral cortex neuron. Kind of data set: Neuroprotection in CD1 mouse primary cortical neuron assessed as reduction in stretch injury-induced cell death at 2 to 10 uM dosed 1 hr after injury by propidium iodide straining based. The class given is functional.

Usually inhibition stands for how much of the control response was suppressed. The IC50 is the concentration that inhibits the measured activity by half.

Transient receptor potential cation channel subfamily M member 7, sequence (Q923J1 whole entry): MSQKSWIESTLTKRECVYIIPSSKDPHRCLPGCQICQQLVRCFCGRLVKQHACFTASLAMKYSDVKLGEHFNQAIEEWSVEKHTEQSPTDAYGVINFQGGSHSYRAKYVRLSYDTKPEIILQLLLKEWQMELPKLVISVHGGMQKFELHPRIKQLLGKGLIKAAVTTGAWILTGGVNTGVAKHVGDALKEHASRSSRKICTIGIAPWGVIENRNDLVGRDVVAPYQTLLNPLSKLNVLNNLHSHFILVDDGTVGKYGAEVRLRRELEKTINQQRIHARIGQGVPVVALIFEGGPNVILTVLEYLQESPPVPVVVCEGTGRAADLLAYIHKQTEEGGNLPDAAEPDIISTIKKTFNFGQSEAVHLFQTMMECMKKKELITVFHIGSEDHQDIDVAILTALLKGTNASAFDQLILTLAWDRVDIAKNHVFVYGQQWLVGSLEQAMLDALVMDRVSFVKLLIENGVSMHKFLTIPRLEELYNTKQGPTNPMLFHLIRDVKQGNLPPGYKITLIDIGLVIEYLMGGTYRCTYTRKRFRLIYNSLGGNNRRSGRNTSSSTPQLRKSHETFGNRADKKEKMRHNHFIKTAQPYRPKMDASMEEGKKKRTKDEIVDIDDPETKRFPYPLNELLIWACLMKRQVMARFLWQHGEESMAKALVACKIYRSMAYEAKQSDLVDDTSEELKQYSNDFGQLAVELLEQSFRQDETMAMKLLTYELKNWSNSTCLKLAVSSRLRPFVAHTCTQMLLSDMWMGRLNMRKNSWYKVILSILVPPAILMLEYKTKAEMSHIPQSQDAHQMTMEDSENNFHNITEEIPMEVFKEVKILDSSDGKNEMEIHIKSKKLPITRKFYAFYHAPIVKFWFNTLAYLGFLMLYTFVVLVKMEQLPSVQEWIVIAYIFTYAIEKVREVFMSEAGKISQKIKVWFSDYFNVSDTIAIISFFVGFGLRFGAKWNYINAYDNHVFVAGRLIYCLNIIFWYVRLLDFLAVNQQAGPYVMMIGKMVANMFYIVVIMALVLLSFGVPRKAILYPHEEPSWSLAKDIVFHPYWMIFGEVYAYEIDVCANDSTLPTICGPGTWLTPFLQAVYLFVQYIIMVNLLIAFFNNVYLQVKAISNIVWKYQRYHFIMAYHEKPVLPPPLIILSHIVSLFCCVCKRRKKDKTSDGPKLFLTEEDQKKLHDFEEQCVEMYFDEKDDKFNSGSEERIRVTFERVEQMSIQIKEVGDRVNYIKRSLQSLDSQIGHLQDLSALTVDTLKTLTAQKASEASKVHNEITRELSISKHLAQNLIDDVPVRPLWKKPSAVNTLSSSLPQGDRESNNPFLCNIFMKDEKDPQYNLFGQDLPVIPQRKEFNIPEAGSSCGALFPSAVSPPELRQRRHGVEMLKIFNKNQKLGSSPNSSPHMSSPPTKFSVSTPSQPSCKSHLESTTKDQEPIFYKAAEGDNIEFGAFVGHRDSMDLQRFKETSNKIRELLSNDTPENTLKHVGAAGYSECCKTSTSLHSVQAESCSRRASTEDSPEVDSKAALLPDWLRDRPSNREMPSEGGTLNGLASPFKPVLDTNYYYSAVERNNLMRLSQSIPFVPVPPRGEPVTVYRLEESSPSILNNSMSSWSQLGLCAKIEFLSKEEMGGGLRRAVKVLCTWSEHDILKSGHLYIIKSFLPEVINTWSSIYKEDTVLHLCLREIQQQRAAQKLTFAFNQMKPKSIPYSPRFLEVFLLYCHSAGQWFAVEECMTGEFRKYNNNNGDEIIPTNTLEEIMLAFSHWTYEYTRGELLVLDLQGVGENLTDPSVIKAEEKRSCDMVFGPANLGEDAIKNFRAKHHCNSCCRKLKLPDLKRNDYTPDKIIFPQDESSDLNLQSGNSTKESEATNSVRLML

`Cc1ccc2c(c1)CCCN2C(=O)c1[nH]c2ccccc2c1Cl`: the Ratio in data set [1] stood at 0.77; in [3], 0.76. Further, in data set [2], the inhibition at 5 µM came out at 9%. For the same molecule, the inhibition at 10 µM in data set [4] was determined as 33%.
For `COc1ccc2c(c1)CCN=C2c1sc2ccccc2c1Cl`, the “Selectivity Index” value in data set [5], in [6], in data set [7], in data set [12], in [15] and in [16] was 20 each time. The “Selectivity Index” value in data set [17], in data set [18], in [19], in data set [20], in [21] and in data set [22] was 20 in each case. The “Selectivity Index” value in data set [23], in [27] and in [28] was 20 in each case. The figures for the half-inhibitory concentration (IC50) in data set [8] and in [9] were 1.19 µM and 5 µM, respectively. For the same molecule, the Ratio in data set [1] is recorded as 0.06; in data set [3], 0.035. Moreover, the inhibition at 10 µM in [10] is more than 40%; in data set [11], more than 40%; in data set [13], more than 40%; in [14] it was more than 40%; in data set [24], more than 40%; in data set [4], 42%. For the same molecule, the inhibition at 5 µM in data set [2] came out at 18%. Besides, the inhibition at 72 h, 10 µM in data set [25], in data set [26] and in data set [29] was more than 40% each time.
Turning to `COc1ccc(C(=O)c2sc3ccccc3c2Cl)cc1`, the “Selectivity Index” value in data set [5], in data set [6], in data set [7], in [12], in data set [15] and in data set [16] was 20 in each case. For the same molecule, the “Selectivity Index” value in data set [17], in data set [18], in data set [19], in [20], in data set [21] and in [22] was 20 in each case. The “Selectivity Index” value in data set [23], in data set [27] and in data set [28] was 20 each time. Besides, in data set [8], the IC50 worked out at 4 µM. The figures for the Ratio in data set [1] and in data set [3] were 0.305 and 0.063, respectively. Moreover, the inhibition at 10 µM in data set [10], in [11], in data set [13], in [14] and in [24] was more than 40% throughout. Further, the inhibition at 72 h, 10 µM in [25], in data set [26] and in data set [29] was more than 40% in each case.
In the case of `Cc1c(Cc2ccc(Cl)c(Cl)c2)c(=O)oc2cc(O)ccc12`, the outcome in data set [30], in data set [32], in data set [33], in [34], in [35] and in data set [36] was Active. Further, in [31], the “fold change (FC)” value is reported as 2.
